Experimental data as given in patent publication EP1345943B1, “INHIBITORS OF PAPILLOMA VIRUS” (BOEHRINGER INGELHEIM (CANADA) LTD., priority 2000, dated 2002).

target: E1-E2-DNA complex (Human papillomavirus 11, UniProt P04015); assay: E2-dependent E1 DNA binding assay (E1-E2 DNA assay); conditions: E1-E2 DNA assay of Example 11, HPV-11
Procedure, shortened: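 SPA-format binding of E1 (about 100-200 ng purified) and E2 (8 ng) to a 0.4 ng [33P]-labelled 400 bp HPV-11 origin probe, in 20 mM Tris pH 7.6, 100 mM NaCl, 1 mM DTT, 1 mM EDTA, for 1 h at room temperature. Complex captured 1 h with anti-E1 C-terminal antiserum on protein A-SPA beads and counted by scintillation; IC50 derived.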

Sequence of E1-E2-DNA complex (P04015 whole entry, one chain of several): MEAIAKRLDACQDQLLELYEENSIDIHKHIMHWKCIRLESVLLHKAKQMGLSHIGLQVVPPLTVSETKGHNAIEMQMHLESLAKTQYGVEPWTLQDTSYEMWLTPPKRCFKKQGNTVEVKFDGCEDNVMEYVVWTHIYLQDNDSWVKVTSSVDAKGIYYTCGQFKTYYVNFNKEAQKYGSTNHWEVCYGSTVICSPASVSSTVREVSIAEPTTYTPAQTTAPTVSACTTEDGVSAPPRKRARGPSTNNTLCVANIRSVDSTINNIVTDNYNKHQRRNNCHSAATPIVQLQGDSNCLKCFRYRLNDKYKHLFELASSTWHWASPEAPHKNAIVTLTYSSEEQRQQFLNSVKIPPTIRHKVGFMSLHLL

Structure (SMILES) | IC50
O=C(Nc1ccc(Cl)cc1)C1C(c2ccc(F)c(F)c2)OC2(C(=O)c3ccccc3C2=O)C1C(=O)O (stereo not drawn) [Compound 1062] | 5 to 50 µM
CSc1ccc(NC(=O)C2C(c3ccc(F)c(F)c3)OC3(C(=O)c4ccccc4C3=O)C2C(=O)O)cc1 (stereo not drawn) [Compound 1073] | 5 to 50 µM
O=C(Nc1ccc(-c2csnn2)cc1)C1C(c2ccc(Br)c(Br)c2)OC2(C(=O)c3ccccc3C2=O)C1C(=O)O (single isomer, unassigned) [Compound A1002] | < 0.5 µM
O=C(Nc1ccc(F)c(F)c1)C1C(c2ccc(F)c(Cl)c2)OC2(C(=O)c3ccccc3C2=O)C1C(=O)O (stereo not drawn) [Compound 1122] | 5 to 50 µM
O=C(NCCc1ccccc1)C1C(c2ccc(F)c(Cl)c2)OC2(C(=O)c3ccccc3C2=O)C1C(=O)O (stereo not drawn) [Compound 1115] | 0.5 to 5 µM
O=C(Nc1ccc(Cl)cc1)C1C(c2ccc(Cl)cc2)OC2(C(=O)c3ccccc3C2=O)C1C(=O)O (stereo not drawn) [Compound 1010] | 5 to 50 µM
Cc1cccc(N2C(=O)C3C(c4ccc(Cl)cc4)OC4(C(=O)c5ccccc5C4=O)C3C2=O)c1 (stereo not drawn) [Compound 2010] | 5 to 50 µM
O=C(Nc1ccc2c(c1)OCO2)C1C(c2ccc3c(c2)OCO3)OC2(C(=O)c3ccccc3C2=O)C1C(=O)O (stereo not drawn) [Compound 4003] | 5 to 50 µM
CC(C)NC(=O)C1C(c2ccc(Cl)c(Cl)c2)OC2(C(=O)c3ccccc3C2=O)C1C(=O)O (stereo not drawn) [Compound 1036] | 0.5 to 5 µM
Cc1ccc2c(c1)C1(O)OC(=O)C3C(C(=O)NCCc4ccccc4Cl)C(c4ccc(Br)c(Br)c4)OC31C2=O (single isomer, unassigned) [Compound B1007] | < 0.5 µM
O=C(Nc1ccc2c(c1)OCO2)C1C(c2cc(Cl)cc(Cl)c2)OC2(C(=O)c3ccccc3C2=O)C1C(=O)O (stereo not drawn) [Compound 1020] | 5 to 50 µM
O=C1C2C(c3ccc(Cl)cc3)OC3(C(=O)c4ccccc4C3=O)C2C(=O)N1c1cccc(Cl)c1 (stereo not drawn) [Compound 2009] | 5 to 50 µM
CC(=O)c1ccc(NC(=O)C2C(C(C)=Cc3ccccc3)OC3(C(=O)c4ccccc4C3=O)C2C(=O)O)cc1 (racemic) [Compound 4009] | 5 to 50 µM
O=C(Nc1ccccc1Br)C1C(c2cc(Cl)cc(Cl)c2)OC2(C(=O)c3ccccc3C2=O)C1C(=O)O (stereo not drawn) [Compound 1142] | < 0.5 µM
CC(NC(=O)C1C(c2ccc(Cl)c(Cl)c2)OC23C(=O)c4ccccc4C2(O)OC(=O)C13)c1ccccc1 (racemic) [Compound 3007] | 5 to 50 µM
CC(=O)c1ccc(NC(=O)C2C(c3ccc(F)c(Cl)c3)OC3(C(=O)c4ccccc4C3=O)C2C(=O)O)cc1 (stereo not drawn) [Compound 1094] | 0.5 to 5 µM
CC(C)(C)c1ccc(NC(=O)C2C(c3ccc(Br)c(Br)c3)OC3(C(=O)c4ccccc4C3=O)C2C(=O)O)cc1 (stereo not drawn) [Compound 1079] | 5 to 50 µM
O=C(Nc1ccc2c(c1)OCO2)C1C(c2ccc(Cl)cc2)OC23C(=O)c4ccccc4C2(O)OC(=O)C13 (racemic) [Compound 3005] | 5 to 50 µM
O=C1C2C(c3ccc(Cl)cc3)OC3(C(=O)c4ccccc4C3=O)C2C(=O)N1c1ccc(F)cc1 (stereo not drawn) [Compound 2004] | 5 to 50 µM
O=C(NCCc1ccccc1Cl)C1C(c2ccc(Cl)c(Cl)c2)OC2(C(=O)c3ccccc3C2=O)C1C(=O)O (stereo not drawn) [Compound 1135] | < 0.5 µM
O=C1C2C(c3ccc(Cl)cc3)OC3(C(=O)c4ccccc4C3=O)C2C(=O)N1c1ccc(C(F)(F)F)cc1 (stereo not drawn) [Compound 2015] | 5 to 50 µM
CC(=O)c1ccc(NC(=O)C2C(c3ccc(F)c(F)c3)OC3(C(=O)c4ccccc4C3=O)C2C(=O)O)cc1 (stereo not drawn) [Compound 1064] | 5 to 50 µM
Cc1cc2c(s1)C1(O)OC(=O)C3C(C(=O)Nc4ccc(CNC(=O)OC(C)(C)C)cc4)C(c4ccc(Br)c(Br)c4)OC31C2=O (single isomer, unassigned) [Compound D1003] | < 0.5 µM

Structure (SMILES) | IC50
N#Cc1ccc(NC(=O)C2C(c3ccc(Cl)c(Cl)c3)OC3(C(=O)c4ccccc4C3=O)C2C(=O)O)cc1 (stereo not drawn) [Compound 1070] | 0.5 to 5 µM
O=C(Nc1ccccc1Cl)C1C(c2ccc(Cl)c(Cl)c2)OC2(C(=O)c3ccccc3C2=O)C1C(=O)O (stereo not drawn) [Compound 1123] | < 0.5 µM
CC(=O)c1ccc(NC(=O)C2C(c3ccc(Cl)c(Cl)c3)OC3(C(=O)c4ccc(F)cc4C3=O)C2C(=O)O)cc1 (stereo not drawn) [Compound 1106] | 0.5 to 5 µM
CC(=O)NCc1ccc(NC(=O)C2C(c3ccc(Br)c(Br)c3)OC34C(=O)c5cc(C)sc5C3(O)OC(=O)C24)cc1 (single isomer, unassigned) [Compound D1004] | < 0.5 µM
O=C1C2C(c3ccc(Br)c(Br)c3)OC3(C(=O)c4ccccc4C3=O)C2C(=O)N1c1ccc(N2CCOCC2)cc1 (stereo not drawn) [Compound 2023] | < 0.5 µM
O=C1C2C(c3cccc(Cl)c3)OC3(C(=O)c4ccccc4C3=O)C2C(=O)N1c1ccc2c(c1)OCO2 (stereo not drawn) [Compound 2005] | 0.5 to 5 µM
O=C(Nc1ccc2c(c1)OCO2)C1C(c2ccc(Cl)c(Cl)c2)OC2(C(=O)c3ccccc3C2=O)C1C(=O)O (racemic) [Compound 5001] | 0.5 to 5 µM
Cc1ccc2c(c1)C(=O)C13OC(c4ccc(Br)c(Br)c4)C(C(=O)Nc4ccc(N5CCOCC5)cc4)C1C(=O)OC23O (single isomer, unassigned) [Compound B1002] | < 0.5 µM
O=C(Nc1ccc(-c2csnn2)cc1)C1C(c2ccc(Cl)c(Cl)c2)OC2(C(=O)c3ccccc3C2=O)C1C(=O)O (stereo not drawn) [Compound 1052] | < 0.5 µM
CC(C)(C)c1ccc(NC(=O)C2C(c3ccc(Cl)c(Cl)c3)OC3(C(=O)c4ccccc4C3=O)C2C(=O)O)cc1 (stereo not drawn) [Compound 1060] | 0.5 to 5 µM
Cc1ccc2c(c1)C(=O)C1(OC(c3ccc(Cl)c(Cl)c3)C(C(=O)Nc3ccc4c(c3)OCO4)C1C(=O)O)C2=O (stereo not drawn) [Compound 1037] | 0.5 to 5 µM
CC(=O)Nc1ccc(NC(=O)C2C(c3ccc(Br)c(Br)c3)OC3(C(=O)c4ccccc4C3=O)C2C(=O)O)cc1 (stereo not drawn) [Compound 1092] | < 0.5 µM
COc1ccc(OC)c(CCNC(=O)C2C(c3ccc(Cl)c(Cl)c3)OC3(C(=O)c4ccccc4C3=O)C2C(=O)O)c1 (stereo not drawn) [Compound 1137] | 0.5 to 5 µM
CC(=O)c1ccc(NC(=O)C2C(c3ccc(Cl)c(Cl)c3)OC34C(=O)c5sc(C)cc5C3(O)OC(=O)C24)cc1 (stereo not drawn) [Compound C1001] | 5 to 50 µM
O=C(NC1CC1c1ccccc1)C1C(c2ccc(Br)c(Br)c2)OC2(C(=O)c3ccccc3C2=O)C1C(=O)O (single isomer, unassigned) [Compound 1089] | < 0.5 µM
Cc1ccc2c(c1)C1(O)OC(=O)C3C(C(=O)NCCc4ccccc4Cl)C(c4ccc(Br)c(Br)c4)OC31C2=O (single isomer, unassigned) [Compound B1005] | 5 to 50 µM
O=C(NC1CCCCC1)C1C(c2ccc(Br)c(Br)c2)OC2(C(=O)c3ccccc3C2=O)C1C(=O)O (stereo not drawn) [Compound 1099] | < 0.5 µM
CC(C)(C)NC(=O)C1C(c2ccc(Cl)c(Cl)c2)OC2(C(=O)c3ccccc3C2=O)C1C(=O)O (stereo not drawn) [Compound 1046] | 0.5 to 5 µM
O=C(NCCc1ccccc1)C1C(c2ccc(Br)c(Br)c2)OC2(C(=O)c3ccccc3C2=O)C1C(=O)O (stereo not drawn) [Compound 1097] | < 0.5 µM
O=C1C2C(c3ccc(Cl)c(Cl)c3)OC3(C(=O)c4ccccc4C3=O)C2C(=O)N1c1ccc2c(c1)OCO2 (racemic) [Compound 2013] | 0.5 to 5 µM
N#Cc1cccc(C2OC3(C(=O)c4ccccc4C3=O)C(C(=O)O)C2C(=O)Nc2ccc(N3CCOCC3)cc2)c1 (stereo not drawn) [Compound 1085] | 5 to 50 µM
CC(=O)c1ccc(NC(=O)C2C(C=Cc3cccc(Cl)c3Cl)OC3(C(=O)c4ccccc4C3=O)C2C(=O)O)cc1 (stereo not drawn) [Compound 4010] | 0.5 to 5 µM
